Experimental data as given in the METLIN SMRT retention time set (Domingo-Almenara et al. 2019).

Assay: gradient 5% acetonitrile 3 min, to 50% in 2 min, to 85% in 15 min, held 3 min, 100 µL/min
Conditions: column: Zorbax Extend-C18 2.1 x 50 mm; eluents: water / acetonitrile, 0.1% formic acid
Outline: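 Using water and acetonitrile that each contained 0.1% formic acid, mixtures of ~100 pure standards were separated at 100 μL/min on a Zorbax Extend-C18 column (2.1 × 50 mm, 1.8 μm). The HPLC fed a quadrupole time-of-flight mass spectrometer working in positive and negative ionization mode, with dead and dwell volumes of 40 μL and 900 μL. Data were acquired over 3 months. Retention time was read from computationally picked adduct peaks after manual inspection of each.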
`O=C1CCN(S(=O)(=O)c2ccccc2)CCCN(S(=O)(=O)Cc2ccccc2)CCN1` showed an RP-LC retention time of 779 s. Compound `Cc1noc(C2(NC(=O)Cc3ccccc3C)CCCCC2)n1` has an RP-LC retention time of 884 s. With `COCCNC(=O)c1ccc(-c2ccc(N3CCSCC3)nc2)cc1` the RP-LC retention time was 624 s. With `O=c1ccc(N2CCCN(S(=O)(=O)c3ccc(F)cc3)CC2)nn1-c1ccc(Cl)cc1` the RP-LC retention time was 926 s. `Cc1cc2c(c(=O)n(-c3ccc(F)cc3)c(=O)n2CC(=O)Nc2cccc(C#N)c2)n1C` showed an RP-LC retention time of 824 s. Compound `Cc1c(OC(C)C(=O)O)ccc2c1oc(=O)c1ccccc12` (stereo not given) has an RP-LC retention time of 847 s. For `COc1ccc(Cl)c2c(=O)c3c([nH]c12)CCN(CC(=O)Nc1ccc(F)c(F)c1)C3`, the RP-LC retention time was 634 s. In the case of `CCOC(=O)COc1cc(-c2ccc(F)cc2)nc2ccc(NC(=O)COC)cc12`, the RP-LC retention time is reported as 730 s. Work on `CCCN1C(=O)COc2ccc(-c3noc(Cc4ccc(NC(C)=O)cc4)n3)cc21` yielded an RP-LC retention time of 841 s. In the case of `O=C(CCc1csc(NC(=O)NC2CCCCC2)n1)NCc1ccc2c(c1)OCO2`, the RP-LC retention time is reported as 718 s. With `CC(C)n1cc2cc(C(=O)N3CCN(Cc4ccc5c(c4)OCO5)CC3)sc2c1` the RP-LC retention time was 696 s. For `C=CCNC(=O)C1CCN(Cc2noc(-c3ccc(F)cc3)n2)CC1`, the RP-LC retention time was 613 s. With `O=C(CN1C(=O)C2CCCCN2c2ccc(C(=O)N3CCCC3)cc21)NCCC1=CCCCC1` (stereo not given) the RP-LC retention time was 914 s. In the case of `CCN1CCc2nc(NC(=O)C3CCN(S(=O)(=O)c4ccc(Cl)s4)CC3)sc2C1`, the RP-LC retention time is reported as 656 s. Compound `CCOC(=O)c1cn(CC(=O)N2CCOc3ccc(C)cc32)c2nc(C)ccc2c1=O` has an RP-LC retention time of 836 s. For `CS(=O)(=O)NCC1CCC(C(=O)Nc2cccc3nsnc23)CC1` (stereo not given), the RP-LC retention time was 700 s. With `CCc1nc2c(=O)n(CC(=O)N3CCN(c4ccccn4)CC3)nc(C)c2s1` the RP-LC retention time was 585 s. `Cc1cc(C(=O)NCC2CCN(C(=O)NC(C)(C)C)CC2)no1` gave an RP-LC retention time of 649 s. `CCOCCn1c(=O)c2c(nc3n2CCN3c2cc(Cl)ccc2OC)n(C)c1=O` gave an RP-LC retention time of 774 s. For `CCC(=O)Nc1ccc(-n2cnc(C(=O)NCc3ccc(F)c(Cl)c3)c2)nc1`, the RP-LC retention time was 760 s. `COc1ccc(NC(=O)C2CCCN(C(=O)C3Sc4ccccc4NC3=O)C2)cc1` (stereo not given) showed an RP-LC retention time of 750 s. With `O=C(Nc1ccc(Cl)cc1)Nc1cccc2nsnc12` the RP-LC retention time was 1100 s. Work on `COC[C@@H]1CN(S(=O)(=O)c2ccccc2)C[C@H]1c1ccncc1` yielded an RP-LC retention time of 624 s. In the case of `CCNC(=O)c1cc(C)no1`, the RP-LC retention time is reported as 596 s. For `CN1CC(=O)NC(c2ccccc2Cl)C1=O` (stereo not given), the RP-LC retention time was 541 s. With `COCCCNC(=O)Cn1c(=O)c(S(=O)(=O)c2ccccc2)cc2ccccc21` the RP-LC retention time was 705 s. In the case of `COC1CCC12CCN(Cc1ccccc1C#N)CC2` (stereo not given), the RP-LC retention time is reported as 603 s. `O=C(CC1CCCC1)NCCc1nc2cccnc2n1-c1ccccc1` gave an RP-LC retention time of 736 s. Work on `O=S(=O)(NC1CCCC1)c1cccc(-c2nc(-c3ccccc3)no2)c1` yielded an RP-LC retention time of 1170 s. `CCn1c(=O)sc2cc(S(=O)(=O)N3CCC(C(=O)N4CCCCC4C)CC3)ccc21` (stereo not given) gave an RP-LC retention time of 896 s. In the case of `COCCC1CCN(C(=O)COc2ccc(Cl)cc2)CC1`, the RP-LC retention time is reported as 849 s. Compound `O=C(c1cccnc1)N1CCN(C(=O)c2nnn3c2COC(c2ccc(Cl)cc2)C3)CC1` (stereo not given) has an RP-LC retention time of 692 s. Work on `CCc1ccccc1S(=O)(=O)N1CCC(N(C(=O)COC)C2CCOCC2)CC1` yielded an RP-LC retention time of 823 s. Compound `COc1ccc(OCC(=O)Nc2nc(-c3ccccc3)cs2)cc1` has an RP-LC retention time of 1050 s. `CCOc1ccc(S(=O)(=O)N2CCc3c(c(-c4nnc(-c5ccc(F)cc5)o4)nn3C)C2)cc1` gave an RP-LC retention time of 1000 s. Compound `O=c1c2ccccc2nc2n1CCCC2` has an RP-LC retention time of 653 s. For `CCCn1c(CCNC(=O)c2ccc(CC)cc2)nc2cccnc21`, the RP-LC retention time was 723 s. `COC(=O)[C@H](Cc1c[nH]c2ccccc12)NC(=O)c1ccc2c(c1)C(=O)N(C1CC1)C2=O` gave an RP-LC retention time of 830 s. `CN1C(=O)c2cc(S(=O)(=O)Nc3ccccc3)ccc2Oc2cccnc21` gave an RP-LC retention time of 862 s. `Cc1ccc(Oc2nccnc2N2CCCC(C(=O)NC(C)c3ccc(C)cc3C)C2)cc1` (stereo not given) showed an RP-LC retention time of 1160 s. Work on `CCCC(=O)Nc1cc2c(cc1SC(C)C)n(C)c(=O)n2C` yielded an RP-LC retention time of 852 s. In the case of `COc1cccc(-c2noc(Cc3nnc(-c4ccccc4)o3)n2)c1OC`, the RP-LC retention time is reported as 894 s. Work on `CN(CCNC(=O)c1c2c(cn(-c3ccccc3)c1=O)C(=O)CC(C)(C)C2)C1CCCCC1` yielded an RP-LC retention time of 720 s. Compound `O=C(O)c1ccc(N2CCCC2)c(NC(=O)c2cccs2)c1` has an RP-LC retention time of 710 s. Work on `CCCNC(=O)c1cn(-c2ccc(NC(=O)C3CC3)cn2)cn1` yielded an RP-LC retention time of 655 s.
